According to paper PMC8760490, “Discovery of novel furanylbenzamide inhibitors that target oncogenic tyrosine phosphatase SHP2 in leukemia cells” (The Journal of Biological Chemistry, 2021):

Key:
[1] = target: T1, full-length SHP2-E76K oncogenic mutant (Homo sapiens, UniProt Q06124, E76K); assay: DiFMUP fluorescence phosphatase inhibition assay, SHP2-E76K; format: biochemical; details: DiFMUP at Km (20 μM), 10-point dose–response, pH 6.0
T1 construct: Recombinant human full-length SHP2 (1–594) WT and E76K mutants; made in house
T1 sequence (Q06124 1-593 E76K): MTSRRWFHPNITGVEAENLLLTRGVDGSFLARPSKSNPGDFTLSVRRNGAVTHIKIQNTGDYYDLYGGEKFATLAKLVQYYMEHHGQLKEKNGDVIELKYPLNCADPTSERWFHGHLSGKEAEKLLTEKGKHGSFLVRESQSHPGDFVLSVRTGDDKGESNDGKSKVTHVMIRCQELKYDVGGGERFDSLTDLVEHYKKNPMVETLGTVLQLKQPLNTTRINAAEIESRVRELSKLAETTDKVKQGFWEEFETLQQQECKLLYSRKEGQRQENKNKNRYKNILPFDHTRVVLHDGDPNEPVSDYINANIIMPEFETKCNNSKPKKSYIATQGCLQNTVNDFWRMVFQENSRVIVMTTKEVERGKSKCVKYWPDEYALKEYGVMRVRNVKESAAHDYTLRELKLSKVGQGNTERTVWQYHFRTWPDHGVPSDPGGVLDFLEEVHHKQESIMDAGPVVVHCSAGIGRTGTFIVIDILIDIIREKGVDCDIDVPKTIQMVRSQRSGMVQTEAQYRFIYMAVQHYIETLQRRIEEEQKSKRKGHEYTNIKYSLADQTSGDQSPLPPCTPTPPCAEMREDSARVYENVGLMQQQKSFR
Excerpt: To test the synthesized compounds for their potential to inhibit SHP2 activity, a fluorescence intensity-based assay using 6,8-difluoro-4-methylumbelliferyl phosphate (DiFMUP) as the substrate was adapted for three recombinant SHP2 constructs: (1) the SHP2 catalytic domain (SHP2cat; residues 248–527), (2) the full-length SHP2-E76K oncogenic mutant, and (3) the full-length SHP2 WT (SHP2-WT). The recombinant SHP2 proteins were expressed and purified as described previously ([36]). A dually phosphorylated peptide derived from the insulin receptor substrate 1 (IRS-1) served as a surrogate binding protein and was used to activate SHP2-WT ([30], [36]). […] Michaelis–Menten experiments to determine the DiFMUP Michaelis–Menten constant (Km) for each SHP2 construct were performed as described previously ([36]) and yielded the following values: SHP2-WT, Km = 60 μM; SHP2-E76K, Km = 20 μM; and SHP2cat, Km = 20 μM. Relative maximum rates (Vmax) of the DiFMUP reactions expressed as relative fluorescence units per minute (RFU/min) were as follows: SHP2-WT, Vmax = 871 RFU/min; SHP2-E76K, Vmax = 2730 RFU/min; and SHP2cat, Vmax = 2912 RFU/min. IC50 values for each compound were determined from initial rates in 10-point dose–response assays using DiFMUP at a concentration corresponding to its Km value for the respective SHP2 construct. […] Replacements for the benzothiophenone were explored using analog #10.
Recombinant human full-length SHP2 (1–594) WT and E76K mutants, as well as the SHP2cat (248–527), were expressed and purified as described before ([36], [41]). Recombinant human PTP1B (1–300) and the codon-optimized STEP (280–566) catalytic domains were cloned into PET-15b and expressed as N-His-tagged fusion proteins. For expression, transformed BL21(DE3) cells were grown and induced similar as described for SHP2. Collected cells were resuspended in lysis buffer (25 mM Tris, pH 7.5, 300 mM NaCl, 50 mM imidazole, and 10% glycerol) with 100 mg/l RNaseA and were lysed with two passages using a microfluidizer. The lysate was clarified by centrifugation at 15,000g for 50 min and applied to nickel–nitrilotriacetic acid resin. The column resin was washed, and the PTP1B or STEP protein was eluted in lysis buffer at 300 mM imidazole. The PTP1B or STEP protein was further purified by S75 size-exclusion chromatography in 50 mM Tris, pH 7.5, 50 mM NaCl. The eluted peak fractions were supplemented with tris(2-carboxyethyl)phosphine to 10 mM, concentrated by ultrafiltration, and stored at −80 °C. The purified yield of PTP1B was 33 mg/l cell culture; the yield of STEP was 16 mg/l cell culture.
SHP2 inhibitors were tested at RT in a 384-well plate format standard phosphatase fluorescence intensity assay using DiFMUP (Invitrogen/Thermo Fisher Scientific) as a substrate and a total reaction volume of 25 μl. SHP2 inhibitors or vehicle (DMSO) were spotted in triplicate into a black Greiner FLUOTRAC 200 384-well microplate (catalog no.: 781076; Greiner) for a 10-point dose–response assay using an Echo 555 Liquid Handler (Labcyte, Inc). PTP working solutions were prepared at a 0.625 nM concentration (for a final concentration of 0.5 nM) in buffer containing 50 mM Bis–Tris, pH 6.0, 50 mM NaCl, 5 mM DTT, and 0.01% Tween-20. Prior to the assay, a dually phosphorylated IRS-1 peptide (625 nM [500 nM final] ([30])) was added to full-length WT SHP2 working solutions and incubated for 20 min. DiFMUP working solutions at 5× final concentration were prepared in 50 mM Bis–Tris, pH 6.0, 50 mM NaCl, and 0.01% Tween-20. About 20 μl of PTP working solution was dispensed into the microplate and incubated with inhibitor for 20 min at RT. […] The reaction was initiated by addition of 5 μl DiFMUP working solutions. Fluorescence intensity was measured in kinetic mode (every minute for 7 or 10 min) using a Tecan Spark Multimode Microplate Reader (Tecan) with an excitation wavelength of 360 nm and an emission wavelength of 460 nm. […]

[2] = test system: KYSE-520 esophageal cancer cells; assay: Cell viability (CellTiter-Glo), KYSE-520; format: cell-based; details: for effect on KYSE-520 cell growth: various concentrations, 3 days
Experimental: Inhibition of SHP2 has been reported to inhibit the growth of cancer cells including Kasumi-1 acute myeloid leukemia (AML) and KYSE-520 esophageal cancer cells ([30]). […] Thus, we treated two TNBC cell lines, BT-549 and MDA-MB-468, with SBI-4668 or the SHP2 allosteric inhibitor SHP099 at various concentrations and determined cell viability after 72 h, compared with the vehicle control (Fig. 4C). […] Next, we performed an 11-day colony formation assay with TNBC cells treated with SBI-4668 or SHP099 at 5, 10, or 20 μM (Fig. 4D).
Viability of AML and esophageal carcinoma cells was assessed using the ATP-depletion assay CellTiter-Glo (Promega). Cells were harvested at 1 × 10^6/ml to 2 × 10^6 cells/ml with cell numbers determined by trypan blue using the Countess Cell counter (Thermo Scientific) and resuspended in culture media. About 3000 cells (in 20 μl) were seeded in a 384-well format white and clear-bottom microplate (catalog no.: 781098; Greiner) spotted with test compound or vehicle control (DMSO) using an Echo 555 Liquid Handler. Cells were incubated for 3 days, before 10 μl of CellTiter-Glo reagent mix was added to each well and incubated for 10 min at RT. Luminescence was read on a Tecan Spark Multimode Microplate Reader, and data were analyzed using GraphPad Prism software.

Compound	IC50 [1] [µM]	effect on KYSE-520 cell growth [2]	IC50 ([2]; Homo sapiens, KYSE-520, 72 h, 3 days in culture) [µM]
Nc1ccc(NC(=O)c2cc(-c3ccc(/C=C4\Sc5ccccc5C4=O)o3)ccc2O)cc1 [SBI-2130, (Z)-N-(4-Aminophenyl)-2-hydroxy-5-(5-((3-oxobenzo[b]thiophen-2(3H)-ylidene)methyl)furan-2-yl)benzamide]	0.48	dose-dependently inhibited cancer cell growth	
O=C1CCCC1=Cc1ccc(-c2ccc(O)c(C(=O)Nc3ccccc3)c2)o1 [SBI-3192, 2-Hydroxy-5-(5-((2-oxocyclopentylidene)methyl)furan-2-yl)-N-phenylbenzamide]	2.3		
N#Cc1cc(-c2ccc(/C=C3\Sc4ccccc4C3=O)o2)ccc1O [SBI-3404, (Z)-2-Hydroxy-5-(5-((3-oxobenzo[b]thiophen-2(3H)-ylidene)methyl)furan-2-yl)benzonitrile]	4.2	dose-dependently inhibited cancer cell growth	
O=C1/C(=C/c2ccc(-c3ccc(O)c(-c4nn[nH]n4)c3)o2)Sc2ccccc21 [SBI-3405, (Z)-2-((5-(4-Hydroxy-3-(2H-tetrazol-5-yl)phenyl)furan-2-yl)methylene)benzo[b]thiophen-3(2H)-one]	4.1		
O=C(Nc1ccccc1)c1cc(-c2ccc(/C=C3\Sc4ccccc4C3=O)o2)ccc1O [SBI-4668, (Z)-2-Hydroxy-5-(5-((3-oxobenzo[b]thiophen-2(3H)-ylidene)methyl)furan-2-yl)-N-phenylbenzamide]	1.8	dose-dependently inhibited cancer cell growth	5.4
